As a reminder, the melting point is the temperature, or range, at which the solid turns liquid.

Some results are limits rather than exact numbers.

Consider `CC(C)CN(C)S(=O)(=O)c1cccc(-c2cc(-c3nc(-c4ccc(C(F)(F)F)cc4)cc(C(F)(F)F)n3)ccn2)c1`, for which the melting point came out at 144 °C. As for `N#Cc1cccc(C(=O)NCc2cccc3c2CN(C2CCC(=O)NC2=O)C3=O)c1` (configuration not stated), the figure is 282 to 284 °C; as for `O=C(O)Cn1cc(Cc2nc3c(F)c(F)cc(F)c3s2)c2cc(F)ccc21`, 193 to 195 °C; as for `CON(C(=Cc1ccccc1)C(N)=O)c1ccccc1`, 69 °C. As to `O=C(O)C(=O)Nc1cc(-c2ccc(-c3cccc4c3oc3ccccc34)cc2)cn(Cc2ccccc2)c1=O`, the melting point lay in the range of 220 to 223 °C. Turning to `CCCc1c(C)c(NC(=O)CC(C)(C)C)c(C)c2c1SCC2c1ccc(C(C)C)cc1` (configuration not stated), the melting point was in the range of 159 to 160 °C. Consider `Cn1c(=O)c2c(ncn2CCN2CC=C(c3c[nH]c4ccccc34)CC2)n(C)c1=O`, for which the melting point is 196 °C. Take `COc1ccc(C(=O)Nc2ccccc2C(C)(O)c2ccccn2)cc1` (configuration not stated): the melting point was in the range of 127 to 128 °C. Under `COc1cccc(OC)c1C(=O)NC(=O)Nc1ccc(Sc2ccc(Cl)cc2)nc1` stands 172 to 174 °C; under `CCCCCCCCCCOC(=O)C1=C(C)OC(N)=C(C(=O)OCC)C1c1cccc([N+](=O)[O-])c1` (configuration not stated), 100 °C; under `Nc1cccc(Br)c1-c1ncc[nH]1`, 164 to 165 °C. In turn, `CC(C)(C)OC(=O)N[C@@H](CCC(N)=O)C(=O)N1CCN(Cc2ccccc2)CC1` gave a melting point of 158 to 159 °C. With `N#Cc1ccc(N2CCN(c3ccnc(Cl)n3)CC2)cc1`, the melting point was in the range of 216 to 218 °C. As for `CCCCn1c(C(=O)c2cc(C)cc(CCC#N)c2)c(C(C)C)c(=O)[nH]c1=O`, the figure is 172 to 173 °C. With `CCCCc1cnc2ccccc2c1Cc1ccc(C(=O)O)cc1`, the melting point turned out to be 233 °C. Under `Cc1ccc(S(=O)(=O)N2Cc3cscc3C2)cc1` stands 125 to 127 °C; under `CC(C)(C)C(=O)Oc1ccc(C(=O)c2ccc(Cl)cc2)cc1`, 113 to 114 °C; under `COc1cc2c(c3c1c(=O)c1cc4ccccc4cc1n3C)[C@H](OC(=O)N(C)C)[C@H](OC(=O)N(C)C)C(C)(C)O2`, 173 °C. For `CC(C)(C)c1cc(C#N)c(Nc2ccccc2[N+](=O)[O-])s1`, the melting point lay in the range of 85 to 90 °C.

With `O=C(c1cc(I)c[nH]1)C(Cl)(Cl)Cl`, the melting point worked out at 140 °C. As for `COC(=O)[C@@H](NC(=O)Nc1n[nH]c(=S)s1)[C@@H](C)OCc1ccccc1`, the figure is 88 to 90 °C; as for `COC(=O)CCCOc1ccc(CNC(=O)C2Cc3ccccc3N2S(=O)(=O)c2ccc(-c3cccc(C(F)(F)F)c3)cc2)cc1` (configuration not stated), 50 °C.

For the molecule `CCCOc1ccc(CC(=O)NCC(=O)OC)cc1Cl`, the melting point is 76 to 80 °C. Under `CC(C)(C(=O)O)c1ccc(CCN2CCC(c3nc4ccccc4n3CCO)CC2)cc1` stands 218 °C; under `CC(C)c1cccc(C(C)C)c1NS(=O)(=O)CC(=O)N(Cc1ccccc1)C(C)C`, 168 to 170 °C. `COc1cc(-c2nc(N3CCN(C(C)=O)CC3)c3c(C)c(C#N)sc3n2)cc(OC)c1OC` gave a melting point of 211 to 213 °C.

Regarding `Cc1ccc(S(=O)(=O)NCCc2ccc(O)cc2)cc1`, the melting point was in the range of 169 to 172 °C. As for `CC(CN(C)C)Nc1ccnc2cc3c(cc12)OCO3` (configuration not stated), the figure is 71 to 72 °C; as for `Cc1noc(NC(=O)N2CCN(c3cc(-c4ccc(F)cc4)ncn3)CC2)c1C`, 207 to 208 °C. `Cc1ccc(S(=O)(=O)N2CC3=C(CNCC3)C2)cc1` registered a melting point of 201 °C. Under `O=C[C@H]1CC[C@H](SCc2ccc(Cl)cc2)CC1` stands 44 to 46 °C; under `COc1cc(C(=O)O)ccc1Cn1ccc2ccc(NC(=O)CC3CCCC3)cc21`, 259 to 260 °C; under `COc1ccc2cc([C@H](C)C(=O)OCCNC(=O)c3cccc(CO[N+](=O)[O-])c3)ccc2c1`, 92 to 94 °C. Under `CC(C)C1=C(Cl)C(=O)c2ccccc2C1=O` stands 57 to 59 °C. Molecule `CCOc1ccc(-c2ncc(C#N)c(Cl)n2)cc1` came in with a melting point of 191 to 192 °C. Under `Cc1ccc(-c2nn(-c3cccc([N+](=O)[O-])c3)c(N)c2C(N)=O)cc1` stands 237 to 238 °C; under `NC(=O)C1(c2ccc(F)cc2)OC(=O)c2ccccc21` (configuration not stated), 170 to 173 °C. Under `Oc1cc2[nH]c3c(O)c(O)ccc3c2cc1O` stands above 280 °C; under `COc1ccc(C(=O)N2CCOc3ccc(C4=NNC(=O)CC4)cc32)cc1OC`, 207 to 208 °C. As for `O=C(O)c1ccccc1Oc1ccc(Br)cc1NS(=O)(=O)c1cc(C(F)(F)F)cc(C(F)(F)F)c1`, the figure is 158 to 159 °C; as for `Cc1cc(OC(F)F)ccc1C(=O)O`, 117 to 119 °C; as for `CCOC(C)O[C@H]1C(=O)N(C(=O)Oc2ccccc2)[C@H]1c1ccccc1` (some centres not stated), 50 to 52 °C.

`Cc1ccc2c(c1)NC(=O)c1cscc1O2` returned a melting point of 209 to 213 °C. On to `CCCCCC(=O)C=[PH2]c1ccccc1`, for which the melting point was in the range of 73 to 74 °C.

`CCC(Oc1c(Br)cccc1Br)C(=O)OC1CC(O)C=C2C=CC(C)C(CCC3CC(O)CC(=O)O3)C21` (mixture of isomers) registered a melting point of 114 to 116 °C. As to `O=C(O)c1ncn2c1CN=C(c1ccccc1)c1cc(Cl)ccc1-2`, the melting point lay within 268 to 270 °C. As for `C=CCNc1nc(NCCCC)c2scc(C)c2n1`, the figure is 68 to 70 °C. Under `CC(C)(C)C(=O)SCC1CCCCCCCSC[C@@H](C(=O)OCc2ccccc2)NC1=O` (some centres not stated) stands 135 to 137 °C; under `Cc1c(C)c(O)c(CN(C)C)c(C)c1O`, 103 to 108 °C. Under `COc1ccc(C(=O)n2c(C(=O)O)cc3cc(OC)ccc32)cc1` stands 185 to 187 °C; under `CCCCc1nc2ccccc2n1Cc1ccc(-c2ccccc2C(=O)OC)cc1`, 132 to 134 °C.

Turning to `Nc1n[nH]c(-c2ccccc2)c1CC(=O)O`, the melting point was in the range of 214 to 216 °C. For the molecule `CN(C(=O)C(F)(F)F)c1ccc(C2=NC[C@@H](OC(=O)Nc3ccccc3)[C@H](c3ccccc3)O2)cc1` (racemic), the melting point came out at 160 °C.

As to `CC(C)(C)n1c(=O)[nH]c2ccccc21`, the melting point fell in the range of 146 to 147 °C. Turning to `COC(=O)C(=O)c1ccccc1COc1ccc(-c2ccccc2)cc1`, the melting point fell in the range of 106 to 107 °C. Under `COc1ccc(-c2ccccc2)c2sc(-c3ncc[nH]3)nc12` stands 205 to 206 °C; under `Oc1ccc(-c2noc(C3(COc4c(F)cccc4OC(F)(F)F)CC3)c2-c2ccccc2)cc1`, 132 to 133 °C.

`CN(C)C(=O)N1CCc2ccc(S(=O)(=O)NC(=O)NC3CCCC3)cc2CC1` yielded a melting point of 179 to 180 °C. Molecule `Cc1c2n(c3ccccc13)C(=O)N(Cc1ncn(C(c3ccccc3)(c3ccccc3)c3ccccc3)c1C)CC2` returned a melting point of 210 to 220 °C. As for `COc1cccc(C(O)CNC(=C[N+](=O)[O-])NCCCl)c1` (configuration not stated), the figure is 127 to 130 °C; as for `O=C(Nc1ccc(Cl)cn1)c1ccccc1O`, 206 to 207 °C. Regarding `COc1cccc(CO)c1F`, the melting point fell in the range of 53 to 57 °C.
